Measurements from US8129366B2, “VLA-4 inhibitory drug” (Daiichi Sankyo Company, Limited, priority 2005, dated 2012).
Converted amounts (≈) assume the structure as drawn.

Assays:
hα4 and β1 integrins = target: T1, hα4 and β1 integrins (Homo sapiens, UniProt P05556+P13612); assay: In vitro inhibition of binding between CHO cells expressing hα4 and β1 integrins and Eu3+-hVCAM-1 D1D7-IgG; conditions: for Ki: CHO cells expressing hα4 and β1 integrins, Eu3+-hVCAM-1 D1D7-IgG ligand, without HSA; for IC50: in the presence of 3% human serum albumin (HSA final concentration 3%)
T1 construct: expressed in transfected cells; host or cells: CHO cells
How it was run: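 Bound europium-labelled VCAM-1 D1D7-IgG on α4β1-expressing CHO cells was measured by time-resolved fluorescence after washing at 4 °C. Ligand (2 nM working dilution) and test compound, with or without 3% final HSA, were co-incubated for 1 h at room temperature in Mn²⁺-containing HEPES buffer, pH 7.5. IC50 came from % binding inhibition; Ki was calculated from ligand concentration and Scatchard Kd.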

[1] = Solubility test in first and second liquid of the Japanese Pharmacopoeia; conditions: Solubility
Protocol: The solubilities of the substance under test in the first liquid (JP1, pH=1.2) of the Japanese Pharmacopoeia and the second liquid (JP2, pH=6.8) of the Japanese Pharmacopoeia, were evaluated.

[2] = first liquid of the Japanese Pharmacopoeia (JP1), pH 1.2, simulated gastric fluid, First liquid of Japanese Pharmacopoeia (μg/mL), JP1, pH=1.2
[3] = second liquid of the Japanese Pharmacopoeia (JP2), pH 6.8, aqueous buffer, Second liquid of Japanese Pharmacopoeia (μg/mL), JP2, pH=6.8

T1 sequence (P13612 34-1032): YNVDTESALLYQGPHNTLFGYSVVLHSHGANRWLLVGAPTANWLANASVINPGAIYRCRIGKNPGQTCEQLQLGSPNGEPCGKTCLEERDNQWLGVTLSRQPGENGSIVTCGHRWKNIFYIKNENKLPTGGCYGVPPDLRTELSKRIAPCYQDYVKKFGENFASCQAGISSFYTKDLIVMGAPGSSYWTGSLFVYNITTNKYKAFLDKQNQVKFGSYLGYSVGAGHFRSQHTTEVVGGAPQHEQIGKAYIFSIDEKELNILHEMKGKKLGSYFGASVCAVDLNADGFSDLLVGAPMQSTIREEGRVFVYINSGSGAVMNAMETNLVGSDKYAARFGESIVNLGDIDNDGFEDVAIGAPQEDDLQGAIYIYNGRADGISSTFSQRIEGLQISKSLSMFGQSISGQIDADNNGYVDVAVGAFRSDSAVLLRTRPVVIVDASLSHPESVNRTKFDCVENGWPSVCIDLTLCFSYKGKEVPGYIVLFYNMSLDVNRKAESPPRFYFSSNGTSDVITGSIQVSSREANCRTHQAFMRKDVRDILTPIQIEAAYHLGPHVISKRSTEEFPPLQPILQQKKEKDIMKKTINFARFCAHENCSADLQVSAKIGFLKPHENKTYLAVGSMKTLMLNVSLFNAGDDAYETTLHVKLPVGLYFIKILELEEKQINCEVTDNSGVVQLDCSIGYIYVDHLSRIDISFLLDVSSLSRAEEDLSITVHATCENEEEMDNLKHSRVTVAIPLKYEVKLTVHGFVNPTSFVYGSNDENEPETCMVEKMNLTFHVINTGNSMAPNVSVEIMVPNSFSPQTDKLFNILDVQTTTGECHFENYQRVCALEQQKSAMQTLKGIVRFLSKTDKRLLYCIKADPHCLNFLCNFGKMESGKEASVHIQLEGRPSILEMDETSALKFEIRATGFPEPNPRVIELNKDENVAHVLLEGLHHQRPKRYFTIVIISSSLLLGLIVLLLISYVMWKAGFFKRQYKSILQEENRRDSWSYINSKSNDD
T1 sequence (P05556 21-798): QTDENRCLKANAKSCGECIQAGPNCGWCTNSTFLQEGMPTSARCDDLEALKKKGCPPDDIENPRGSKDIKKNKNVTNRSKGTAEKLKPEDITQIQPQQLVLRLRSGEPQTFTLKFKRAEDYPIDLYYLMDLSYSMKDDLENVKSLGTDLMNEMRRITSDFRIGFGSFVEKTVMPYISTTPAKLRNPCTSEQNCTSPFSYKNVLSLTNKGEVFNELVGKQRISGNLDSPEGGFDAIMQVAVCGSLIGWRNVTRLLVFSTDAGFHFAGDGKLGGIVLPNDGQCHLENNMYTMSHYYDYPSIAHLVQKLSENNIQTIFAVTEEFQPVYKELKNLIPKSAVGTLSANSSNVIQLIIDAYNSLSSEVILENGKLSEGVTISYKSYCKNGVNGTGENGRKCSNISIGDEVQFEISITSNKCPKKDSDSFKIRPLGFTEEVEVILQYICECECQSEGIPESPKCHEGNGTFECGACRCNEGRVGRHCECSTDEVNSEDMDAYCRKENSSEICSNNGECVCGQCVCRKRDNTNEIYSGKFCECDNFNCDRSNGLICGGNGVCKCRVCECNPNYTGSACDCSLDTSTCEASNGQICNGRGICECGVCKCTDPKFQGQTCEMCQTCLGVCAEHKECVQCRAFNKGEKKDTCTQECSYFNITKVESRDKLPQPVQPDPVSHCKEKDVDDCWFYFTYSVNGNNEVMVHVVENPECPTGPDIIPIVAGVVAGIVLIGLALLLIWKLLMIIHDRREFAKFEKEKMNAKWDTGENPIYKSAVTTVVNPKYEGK

| SMILES | Ki (hα4 and β1 integrins) | IC50 (hα4 and β1 integrins) | solubility [1, 2] | solubility [1, 3] |
| --- | --- | --- | --- | --- |
| COCCC1CN([C@H]2C[C@@H](CO[C@H]3CC[C@H](C(=O)O)CC3)N(C(=O)Cc3cc(Cl)c(NC(=O)c4csc5ccccc45)cc3F)C2)C1 [Example 12, Trans-4-[1-[[4-[(benzo[b]thiophen-3-ylcarbonyl)amino]-5-chloro-2-fluorophenyl]acetyl]-(4S)-[3-(2-methoxyethyl)azetidin-1-yl]-(2S)-pyrrolidinylmethoxy]cyclohexanecarboxylic acid] | 1 nM | 8.6 nM | 1910 µg/mL (≈ 2780 µM) | 1690 µg/mL (≈ 2460 µM) |
| Cn1cc(C(=O)Nc2cc(F)c(CC(=O)N3C[C@@H](N4CC(C)(C)C4)C[C@H]3CO[C@H]3CC[C@H](C(=O)O)CC3)cc2Cl)c2ccccc21 [Example 14, Trans-4-[1-[[5-chloro-2-fluoro-4-[(1-methyl-1H-indol-3-ylcarbonyl)amino]phenyl]acetyl]-(4S)-(3,3-dimethylazetidin-1-yl)-(2S)-pyrrolidinylmethoxy]cyclohexanecarboxylic acid] | – | – | 1100 µg/mL (≈ 1680 µM) | 1000 µg/mL (≈ 1530 µM) |
| Cn1cc(C(=O)Nc2cc(Cl)c(CC(=O)N3C[C@@H](N4CC(C)(C)C4)C[C@H]3CO[C@H]3CC[C@H](C(=O)O)CC3)cc2Cl)c2ccccc21 [Example 15, Trans-4-[1-[[2,5-dichloro-4-[(1-methyl-1H-indol-3-ylcarbonyl)amino]phenyl]acetyl]-(4S)-(3,3-dimethylazetidin-1-yl)-(2S)-pyrrolidinylmethoxy]cyclohexanecarboxylic acid] | – | – | 1100 µg/mL (≈ 1640 µM) | 1100 µg/mL (≈ 1640 µM) |
| CCOC1CN([C@H]2C[C@@H](CO[C@H]3CC[C@H](C(=O)O)CC3)N(C(=O)Cc3cc(Cl)c(NC(=O)c4cn(C)c5ccccc45)cc3Cl)C2)C1 [Example 20, Trans-4-[1-[[2,5-dichloro-4-[(1-methyl-1H-indol-3-ylcarbonyl)amino]phenyl]acetyl]-(4S)-(3-ethoxyazetidin-1-yl)-(2S)-pyrrolidinylmethoxy]cyclohexanecarboxylic acid] | 3.9 nM | 40 nM | > 2000 µg/mL | 1920 µg/mL (≈ 2800 µM) |
| O=C(Nc1cc(F)c(CC(=O)N2C[C@@H](N3CC(N4CCCCC4)C3)C[C@H]2CO[C@H]2CC[C@H](C(=O)O)CC2)cc1Cl)c1csc2ccccc12 [Example 28, Trans-4-[1-[[4-[(benzo[b]thiophen-3-ylcarbonyl)amino]-5-chloro-2-fluorophenyl]acetyl]-(4S)-[3-(piperidin-1-yl)azetidin-1-yl]-(2S)-pyrrolidinylmethoxy]cyclohexanecarboxylic acid] | 2.6 nM | 12 nM | 1100 µg/mL (≈ 1550 µM) | 1100 µg/mL (≈ 1550 µM) |
| CN(C)CC1CN([C@H]2C[C@@H](CO[C@H]3CC[C@H](C(=O)O)CC3)N(C(=O)Cc3cc(Cl)c(NC(=O)c4cn(C)c5ccccc45)cc3F)C2)C1 [Example 29, Trans-4-[1-[[5-chloro-2-fluoro-4-[(1-methyl-1H-indol-3-ylcarbonyl)amino]phenyl]acetyl]-(4S)-[3-(N,N-dimethylaminomethyl)azetidin-1-yl]-(2S)-pyrrolidinylmethoxy]cyclohexane carboxylic acid] | 4.2 nM | 12 nM | 1000 µg/mL (≈ 1470 µM) | 1000 µg/mL (≈ 1470 µM) |
| Cn1cc(C(=O)Nc2cc(F)c(CC(=O)N3C[C@@H](N4CCS(=O)(=O)CC4)C[C@H]3CO[C@H]3CC[C@H](C(=O)O)CC3)cc2Cl)c2ccccc21 [Example 160, Trans-4-[1-[[5-chloro-2-fluoro-4-[(1-methyl-1H-indol-3-ylcarbonyl)amino]phenyl]acetyl]-(4S)-(1,1-dioxo-1λ^6-thiomorpholin-4-yl)-(2S)-pyrrolidinylmethoxy]cyclohexanecarboxylic acid] | 2.4 nM | 9.9 nM | – | – |
| Cn1cc(C(=O)Nc2cc(F)c(CC(=O)N3C[C@@H](N4CC5CC4CO5)C[C@H]3CO[C@H]3CC[C@H](C(=O)O)CC3)cc2Cl)c2ccccc21 (stereo partly drawn) [Example 163, Trans-4-[1-[[5-chloro-2-fluoro-4-[(1-methyl-1H-indol-3-ylcarbonyl)amino]phenyl]acetyl]-(4S)-[(1S,4S)-2-oxa-5-azabicyclo[2.2.1]heptan-5-yl]-(2S)-pyrrolidinylmethoxy]cyclohexanecarboxylic acid] | 6.4 nM | 36 nM | – | – |
| O=C(Nc1cc(Cl)c(CC(=O)N2C[C@@H](N3CCCOCC3)C[C@H]2CO[C@H]2CC[C@H](C(=O)O)CC2)cc1Cl)c1csc2ccccc12 [Example 166, Trans-4-[1-[[4-[(benzo[b]thiophen-3-ylcarbonyl)amino]-2,5-dichlorophenyl]acetyl]-(4S)-([1,4]-oxazepan-4-yl)-(2S)-pyrrolidinylmethoxy]cyclohexanecarboxylic acid] | 1.7 nM | 8.2 nM | – | – |
| O=C(Nc1cc(Cl)c(CC(=O)N2C[C@@H](N3CCCN(C4CC4)CC3)C[C@H]2CO[C@H]2CC[C@H](C(=O)O)CC2)cc1Cl)c1csc2ccccc12 [Example 169, Trans-4-[1-[[4-[(benzo[b]thiophen-3-ylcarbonyl)amino]2,5-dichlorophenyl]acetyl]-(4S)-(4-cyclopropyl-[1,4]-diazepan-1-yl)-(2S)-pyrrolidinylmethoxy]cyclohexanecarboxylic acid] | 1.1 nM | 5.9 nM | – | – |
| CS(=O)(=O)N1CCCN([C@H]2C[C@@H](CO[C@H]3CC[C@H](C(=O)O)CC3)N(C(=O)Cc3cc(Cl)c(NC(=O)c4coc5ccccc45)cc3F)C2)CC1 [Example 170, Trans-4-[1-[[4-[(benzo[b]furan-3-ylcarbonyl)amino]-5-chloro-2-fluorophenyl]acetyl]-(4S)-(4-methanesulfonyl[1,4]-diazepan-1-yl)-(2S)-pyrrolidinylmethoxy]cyclohexanecarboxylic acid] | 2.6 nM | 11 nM | – | – |

Further compounds by falling Ki (hα4 and β1 integrins), results first:

| Ki (hα4 and β1 integrins) | IC50 (hα4 and β1 integrins) | solubility [1, 2] | solubility [1, 3] | SMILES |
| --- | --- | --- | --- | --- |
| 6.5 nM | 49 nM | – | – | Cn1cc(C(=O)Nc2cc(Cl)c(CC(=O)N3C[C@@H](N4CC5CC4CO5)C[C@H]3CO[C@H]3CC[C@H](C(=O)O)CC3)cc2Cl)c2ccccc21 (stereo partly drawn) [Example 162, Trans-4-[1-[[2,5-dichloro-4-[1-methyl-1H-indol-3-ylcarbonylamino]phenyl]acetyl]-(4S)-[(1S,4S)-2-oxa-5-azabicyclo[2.2.1]heptan-5-yl]-(2S)-pyrrolidinylmethoxy]cyclohexanecarboxylic acid] |
| 4.6 nM | 12 nM | 1100 µg/mL (≈ 1550 µM) | 1100 µg/mL (≈ 1550 µM) | O=C(Nc1cc(F)c(CC(=O)N2C[C@@H](N3CC(CN4CCOCC4)C3)C[C@H]2CO[C@H]2CC[C@H](C(=O)O)CC2)cc1Cl)c1coc2ccccc12 [Example 30, Trans-4-[1-[[4-[(benzo[b]furan-3-ylcarbonyl)amino]-5-chloro-2-fluorophenyl]acetyl]-(4S)-[3-(4-morpholinylmethyl)azetidin-1-yl]-(2S)-pyrrolidinylmethoxy]cyclohexanecarboxylic acid] |
| 4.4 nM | 13 nM | – | – | O=C(Nc1cc(F)c(CC(=O)N2C[C@@H](N3CCSCC3)C[C@H]2CO[C@H]2CC[C@H](C(=O)O)CC2)cc1Cl)c1coc2ccccc12 [Example 159, Trans-4-[1-[[4-[(benzo[b]furan-3-ylcarbonyl)amino]-5-chloro-2-fluorophenyl]acetyl]-(4S)-(thiomorpholin-4-yl)-(2S)-pyrrolidinylmethoxy]cyclohexanecarboxylic acid] |
| 4.4 nM | 19 nM | – | – | O=C(Nc1cc(Cl)c(CC(=O)N2C[C@@H](N3CCCOCC3)C[C@H]2CO[C@H]2CC[C@H](C(=O)O)CC2)cc1Cl)c1coc2ccccc12 [Example 167, Trans-4-[1-[[4-[(benzo[b]furan-3-ylcarbonyl)amino]-2,5-dichlorophenyl]acetyl]-(4S)-([1,4]-oxazepan-4-yl)-(2S)-pyrrolidinylmethoxy]cyclohexanecarboxylic acid] |
| 3.8 nM | 43 nM | 1000 µg/mL (≈ 1400 µM) | 1000 µg/mL (≈ 1400 µM) | O=C(Nc1cc(F)c(CC(=O)N2C[C@@H](N3CC(N4CCOCC4)C3)C[C@H]2CO[C@H]2CC[C@H](C(=O)O)CC2)cc1Cl)c1csc2ccccc12 [Example 27, Trans-4-[1-[[4-[(benzo[b]thiophen-3-ylcarbonyl)amino]-5-chloro-2-fluorophenyl]acetyl]-(4S)-[3-(4-morpholinyl)azetidin-1-yl]-(2S)-pyrrolidinylmethoxy]cyclohexanecarboxylic acid] |
| 2 nM | 9.4 nM | – | – | O=C(Nc1cc(F)c(CC(=O)N2C[C@@H](N3CCCOCC3)C[C@H]2CO[C@H]2CC[C@H](C(=O)O)CC2)cc1Cl)c1coc2ccccc12 [Example 168, Trans-4-[1-[[4-[(benzo[b]furan-3-ylcarbonyl)amino]-5-chloro-2-fluorophenyl]acetyl]-(4S)-([1,4]-oxazepan-4-yl)-(2-S)-pyrrolidinylmethoxy]cyclohexanecarboxylic acid] |
| 1.9 nM | 15 nM | > 2000 µg/mL | > 2000 µg/mL | COC1CN([C@H]2C[C@@H](CO[C@H]3CC[C@H](C(=O)O)CC3)N(C(=O)Cc3cc(Cl)c(NC(=O)c4cn(C)c5ccccc45)cc3F)C2)C1 [Example 1] |
| 1.2 nM | 5.8 nM | 1840 µg/mL (≈ 2800 µM) | 1680 µg/mL (≈ 2560 µM) | O=C(Nc1cc(Cl)c(CC(=O)N2C[C@@H](N3CCCC3)C[C@H]2CO[C@H]2CC[C@H](C(=O)O)CC2)cc1Cl)c1csc2ccccc12 [Example 31, Trans-4-[1-[[4-[(benzo[b]thiophen-3-ylcarbonyl)amino]-2,5-dichlorophenyl]acetyl]-(4S)-(pyrrolidin-1-yl)-(2S)-pyrrolidinylmethoxy]cyclohexanecarboxylic acid] |
